Test results from ChEMBL document CHEMBL4393675, “Discovery of (R)-5-((5-(1-methyl-1H-pyrazol-4-yl)-4-(methylamino)pyrimidin-2-yl)amino)-3-(piperidin-3-yloxy)picolinonitrile, a novel CHK1 inhibitor for hematologic malignancies” (Eur J Med Chem, 2019).

Columns and labels:
Format in all cases: ADME, organism-based
[1] = AUC (0 to infinity) in ICR mouse at 15 mg/kg, iv administered and measured for 1 min to 12 hrs by LC/MS/MS analysis; design: dose 15 mg/kg, time infinity, route intravenous; conditions: in vivo
[2] = Half life in ICR mouse at 15 mg/kg, iv administered and measured for 1 min to 12 hrs by LC/MS/MS analysis; conditions: in vivo
[3] = MRT in ICR mouse at 15 mg/kg, iv administered and measured for 1 min to 12 hrs by LC/MS/MS analysis; conditions: in vivo
[4] = Cmax in ICR mouse at 15 mg/kg, iv administered and measured for 1 min to 12 hrs by LC/MS/MS analysis; design: dose 15 mg/kg, route intravenous; conditions: in vivo
[5] = AUC (0 to t) in ICR mouse at 15 mg/kg, iv administered and measured for 1 min to 12 hrs by LC/MS/MS analysis; conditions: in vivo
[6] = Volume of distribution at steady state in ICR mouse at 15 mg/kg, iv administered and measured for 1 min to 12 hrs by LC/MS/MS analysis; conditions: in vivo, read-out: Vdss

AUC [1]: 370 ng·h/mL
half-life [2]: 2.23 h
MRT [3]: 0.8 h
Cmax [4]: 849 ng/mL
AUC(0-t) [5]: 363 ng·h/mL
Vd [6]: 6.42 L/kg
SMILES: CNc1nc(Nc2cnc(C#N)c(O[C@@H]3CCCNC3)c2)ncc1-c1cnn(C)c1
